Results taken from PubChem BioAssay AID330 (DTP/NCI, 2004).
“And” between values parts separate entries of the source, which are not always exact repeats. Equal values may be shown once. Toxic doses and inconclusive results are not listed.

Tested on: P388 leukemia ip, CD2F1 mice, survival T/C
Assay: NCI In Vivo Anticancer Drug Screen. Data for tumor model P388 Leukemia (intraperitoneal) in CD2F1 (CDF1) mice
Conditions: endpoint: median survival time, higher = longer survival
Procedure, shortened: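 Mice carrying the transplanted tumor received test compound or vehicle. Survival was recorded in each group, and the value is the treated-group measurement divided by that of the vehicle-treated control group.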

[1] = dose: 200.0 mg/kg/injection, schedule: Q04DX003 (ip), vehicle: saline with Tween-80
[2] = dose: 25.0 mg/kg/injection, schedule: Q01DX005 (ip), vehicle: Klucel (hydroxypropylcellulose) (HPC)
[3] = dose: 50.0 mg/kg/injection, schedule: Q01DX005 (ip), vehicle: Klucel (hydroxypropylcellulose) (HPC)
[4] = dose: 100.0 mg/kg/injection, schedule: Q01DX005 (ip), vehicle: Klucel (hydroxypropylcellulose) (HPC)
[5] = dose: 200.0 mg/kg/injection, schedule: Q01DX005 (ip), vehicle: Klucel (hydroxypropylcellulose) (HPC)
[6] = dose: 60.0 mg/kg/injection, schedule: Q01DX005 (ip), vehicle: saline with Tween-80
[7] = dose: 120.0 mg/kg/injection, schedule: Q01DX005 (ip), vehicle: saline with Tween-80
[8] = dose: 240.0 mg/kg/injection, schedule: Q01DX005 (ip), vehicle: saline with Tween-80
[9] = dose: 50.0 mg/kg/injection, schedule: Q01DX009 (ip), vehicle: saline with Tween-80
[10] = dose: 100.0 mg/kg/injection, schedule: Q01DX009 (ip), vehicle: saline with Tween-80
[11] = dose: 200.0 mg/kg/injection, schedule: Q01DX009 (ip), vehicle: saline with Tween-80
[12] = dose: 50.0 mg/kg/injection, schedule: Q01DX009 (ip), vehicle: saline
[13] = dose: 100.0 mg/kg/injection, schedule: Q01DX009 (ip), vehicle: saline
[14] = dose: 100.0 mg/kg/injection, schedule: Q04DX003 (ip), vehicle: saline
[15] = dose: 200.0 mg/kg/injection, schedule: Q01DX009 (ip), vehicle: saline
[16] = dose: 200.0 mg/kg/injection, schedule: Q04DX003 (ip), vehicle: saline

BrCCN(CCBr)c1ccc2c3c(cccc13)-c1ccccc1-2
T/C (dose: 4.0 mg/kg/injection, schedule: Q01DX009 (ip), vehicle: saline with Tween-80): 160 % of control and 163 % of control | T/C (dose: 6.0 mg/kg/injection, schedule: Q01DX009 (ip), vehicle: saline with Tween-80): 178 % of control | T/C (dose: 6.25 mg/kg/injection, schedule: Q01DX009 (ip), vehicle: saline with Tween-80): 154 % of control | T/C (dose: 9.0 mg/kg/injection, schedule: Q01DX009 (ip), vehicle: saline with Tween-80): 117 % of control | T/C (dose: 100.0 mg/kg/injection, schedule: Q04DX003 (ip), vehicle: saline with Tween-80): 104 % of control | T/C [1]: 104 % of control

CCNC(=O)OCc1c(Cl)nc2n1CCS2
T/C (dose: 25.0 mg/kg/injection, schedule: Q01DX001 (ip), vehicle: Klucel (hydroxypropylcellulose) (HPC)): 103 % of control | T/C (dose: 50.0 mg/kg/injection, schedule: Q01DX001 (ip), vehicle: Klucel (hydroxypropylcellulose) (HPC)): 110 % of control | T/C (dose: 100.0 mg/kg/injection, schedule: Q01DX001 (ip), vehicle: Klucel (hydroxypropylcellulose) (HPC)): 105 % of control

CCCCn1c(CCC)nc([N+](=O)[O-])c1Sc1ncn[nH]1
T/C [2]: 98 % of control | T/C [3]: 117 % of control and 118 % of control | T/C [4]: 114 % of control | T/C [5]: 122 % of control and 123 % of control

c1cc[c]([Sn]([O][Sn]([c]2ccccc2)([c]2ccccc2)[c]2ccccc2)([c]2ccccc2)[c]2ccccc2)cc1
T/C (dose: 0.38 mg/kg/injection, schedule: Q04DX003 (ip), vehicle: saline): 110 % of control | T/C (dose: 0.75 mg/kg/injection, schedule: Q04DX003 (ip), vehicle: saline): 113 % of control | T/C (dose: 1.5 mg/kg/injection, schedule: Q04DX003 (ip), vehicle: saline): 98 % of control | T/C (dose: 3.13 mg/kg/injection, schedule: Q04DX003 (ip), vehicle: Klucel (hydroxypropylcellulose) (HPC)): 90 % of control | T/C (dose: 6.25 mg/kg/injection, schedule: Q04DX003 (ip), vehicle: saline with Tween-80): 105 % of control

O=C(C1CC2CCC1C2)C1CC2CCC1C2 (stereo not drawn)
T/C (dose: 28.2 mg/kg/injection, schedule: Q01DX009 (ip), vehicle: saline with Tween-80): 100 % of control | T/C (dose: 56.5 mg/kg/injection, schedule: Q01DX009 (ip), vehicle: saline with Tween-80): 95 % of control | T/C (dose: 113.0 mg/kg/injection, schedule: Q01DX009 (ip), vehicle: saline with Tween-80): 100 % of control

C=CCNC1=C2C[C@@H](C)C[C@H](OC)[C@H](O)[C@@H](C)/C=C(\C)[C@H](OC(N)=O)[C@@H](OC)/C=C\C=C(/C)C(=O)NC(=CC1=O)C2=O
T/C (dose: 6.25 mg/kg/injection, schedule: Q01DX009 (ip), vehicle: DMSO): 108 % of control | T/C (dose: 6.25 mg/kg/injection, schedule: Q01DX009 (ip), vehicle: distilled water + Tween-80): 112 % of control | T/C (dose: 12.5 mg/kg/injection, schedule: Q01DX009 (ip), vehicle: DMSO): 100 % of control | T/C (dose: 12.5 mg/kg/injection, schedule: Q01DX009 (ip), vehicle: distilled water + Tween-80): 112 % of control | T/C (dose: 25.0 mg/kg/injection, schedule: Q01DX009 (ip), vehicle: DMSO): 107 % of control

N#CC(Nc1ccccc1)c1ccc(Cl)cc1 (stereo not drawn)
T/C [6]: 94 % of control | T/C [7]: 94 % of control | T/C [8]: 104 % of control

CCCCc1[nH]nc(-c2n[nH]c(CCCC)c2C)c1C
T/C [6]: 95 % of control | T/C [7]: 100 % of control | T/C [8]: 108 % of control

[Cl-].[Cl-].[Co+3].[NH-]CC[NH-].[NH-]CC[NH-].[O-][Cl+3]([O-])([O-])O
T/C (dose: 25.0 mg/kg/injection, schedule: Q01DX009 (ip), vehicle: saline with Tween-80): 102 % of control | T/C [9]: 105 % of control and 117 % of control | T/C [10]: 111 % of control and 123 % of control

O=C(O)c1c(Cl)c(Cl)c(Cl)c(Cl)c1C(=O)OCC1CCCO1 (stereo not drawn)
T/C [9]: 90 % of control | T/C [10]: 106 % of control | T/C [11]: 101 % of control

CC(C)c1cccc(C(C)C)c1NC(=O)CCc1n[nH]c(=S)o1
T/C (dose: 50.0 mg/kg/injection, schedule: Q01DX005 (ip), vehicle: saline with Tween-80): 105 % of control | T/C (dose: 100.0 mg/kg/injection, schedule: Q01DX005 (ip), vehicle: saline with Tween-80): 106 % of control | T/C (dose: 200.0 mg/kg/injection, schedule: Q01DX005 (ip), vehicle: saline with Tween-80): 105 % of control

CCCCCCCCCCn1cc[nH]c1=S
T/C [2]: 103 % of control | T/C [3]: 107 % of control and 115 % of control | T/C [4]: 105 % of control and 112 % of control | T/C [5]: 117 % of control

O=C1CSC(c2ccco2)N1CCN1C(=O)CSC1c1ccco1 (stereo not drawn)
T/C (dose: 100.0 mg/kg/injection, schedule: Q04DX002 (ip), vehicle: saline with Tween-80): 100 % of control | T/C (dose: 200.0 mg/kg/injection, schedule: Q04DX002 (ip), vehicle: saline with Tween-80): 98 % of control | T/C (dose: 400.0 mg/kg/injection, schedule: Q04DX002 (ip), vehicle: saline with Tween-80): 91 % of control

N#CC1=C(N)OC(C2CC2)=C(C#N)C1c1ccco1 (stereo not drawn)
T/C (dose: 60.0 mg/kg/injection, schedule: Q01DX005 (ip), vehicle: Klucel (hydroxypropylcellulose) (HPC)): 88 % of control | T/C (dose: 120.0 mg/kg/injection, schedule: Q01DX005 (ip), vehicle: Klucel (hydroxypropylcellulose) (HPC)): 88 % of control

CCCC(CCC)=NCCN=C(CCC)CCC
T/C [12]: 100 % of control | T/C (dose: 50.0 mg/kg/injection, schedule: Q04DX003 (ip), vehicle: saline): 95 % of control | T/C [13]: 100 % of control | T/C [14]: 95 % of control | T/C [15]: 104 % of control | T/C [16]: 91 % of control

COc1ccc(CC(=O)C(=O)O)cc1OCc1ccccc1
T/C (dose: 50.0 mg/kg/injection, schedule: Q04DX003 (ip), vehicle: saline with Tween-80): 96 % of control | T/C [1]: 101 % of control | T/C (dose: 400.0 mg/kg/injection, schedule: Q04DX003 (ip), vehicle: saline with Tween-80): 99 % of control

CC1(C)OC1(C)C
T/C [9]: 100 % of control | T/C [10]: 104 % of control | T/C [11]: 102 % of control | T/C (dose: 400.0 mg/kg/injection, schedule: Q01DX009 (ip), vehicle: saline with Tween-80): 111 % of control

COc1cc2c(cc1OC)[C@]13C[C@@H](OC)C=CC14OC4CN3CCC2 (stereo partly drawn)
T/C (dose: 20.0 mg/kg/injection, schedule: Q01DX009 (ip), vehicle: saline with Tween-80): 90 % of control | T/C (dose: 40.0 mg/kg/injection, schedule: Q01DX009 (ip), vehicle: saline with Tween-80): 95 % of control | T/C (dose: 80.0 mg/kg/injection, schedule: Q01DX009 (ip), vehicle: saline with Tween-80): 90 % of control | T/C (dose: 150.0 mg/kg/injection, schedule: Q01DX009 (ip), vehicle: saline with Tween-80): 122 % of control

CCCCCCCCCCCC(=O)N(CCO)CCc1ccccc1
T/C (dose: 25.0 mg/kg/injection, schedule: Q01DX009 (ip), vehicle: saline): 101 % of control and 91 % of control | T/C [12]: 101 % of control and 109 % of control and 95 % of control | T/C [13]: 100 % of control and 103 % of control | T/C [15]: 103 % of control and 110 % of control

CCN(CC)CCCNC(C)=O
T/C [14]: 100 % of control | T/C [16]: 91 % of control | T/C (dose: 400.0 mg/kg/injection, schedule: Q04DX003 (ip), vehicle: saline): 95 % of control

CCCc1onc(-c2noc(CCC)c2CC)c1CC
T/C (dose: 60.0 mg/kg/injection, schedule: Q01DX005 (ip), vehicle: saline): 100 % of control | T/C (dose: 120.0 mg/kg/injection, schedule: Q01DX005 (ip), vehicle: saline): 95 % of control | T/C (dose: 240.0 mg/kg/injection, schedule: Q01DX005 (ip), vehicle: saline): 103 % of control

CCN(CC)C1=NS(=O)(=O)c2ccccc2C(=O)C1C (stereo not drawn)
T/C (dose: 100.0 mg/kg/injection, schedule: Q04DX002 (ip), vehicle: Klucel (hydroxypropylcellulose) (HPC)): 102 % of control | T/C (dose: 200.0 mg/kg/injection, schedule: Q04DX002 (ip), vehicle: Klucel (hydroxypropylcellulose) (HPC)): 100 % of control | T/C (dose: 400.0 mg/kg/injection, schedule: Q04DX002 (ip), vehicle: Klucel (hydroxypropylcellulose) (HPC)): 100 % of control

O=C(/C=C\c1cccc2ccccc12)c1ccccn1
T/C (dose: 100.0 mg/kg/injection, schedule: Q01DX001 (ip), vehicle: saline with Tween-80): 106 % of control | T/C (dose: 200.0 mg/kg/injection, schedule: Q01DX001 (ip), vehicle: saline with Tween-80): 112 % of control | T/C (dose: 400.0 mg/kg/injection, schedule: Q01DX001 (ip), vehicle: saline with Tween-80): 112 % of control
